# System: non-monomer IgG
# Test: DAOTA fluorescence polarisation (FP) assay: HMWS IgG (non-monomer) spiked into monomer IgG in culture media
# Type: binding
# Settings: cell culture media; FP (mP) signal vs percentage non-monomer
# Description: Non-monomer IgG was sourced internally. This was obtained by size exclusion chromatography from Chinese Hamster Ovary (CHO) cell supernatant (this is a naturally occurring non-monomer IgG).
# FP readings were made using an BMG Pherastar plate reader (BMG, […], Germany) in black half area NBS plates in a total of 120 ul (Corning, New York, USA).
# For DAOTA FP assays, high molecular weight species (HMWS) of IgG (non-monomer) was spiked into monomer IgG in various proportions in 120 ul total of culture media (CD-CHO, ThermoFisher, UK) at a constant at a concentration of 200 mg/L. 0.1 ug of an N′-propyl, N-propyl derivative of diazaoxatriangulenium (N′PNP-DAOTA) was added, and the polarization signal was measured after 5 minutes incubation in the dark.
row,Compound,binding to non-monomer IgG / IgG aggregates (FP polarisation signal)
1,N-butanoic acid aza-di-oxa-triangulenium [N-Phenyl-ADOTA],did not bind to IgG aggregates
2,"CCCn1c2cccc3oc4cccc5c4[c+](c32)c2c1cccc2n5CCC [N′PNP-DAOTA, N′-propyl, N-propyl derivative of diazaoxatriangulenium]",binds to non-monomer IgG

# Reference: patent publication US20250003972A1, “A METHOD OF DETERMINING THE PRESENCE OF AN ANALYTE IN A SAMPLE” (Valitacell Limited, priority 2021, published 2025)
